The subject of the experiment is DMS 114 tumor spheroids, viability % test/control. In words: Anticancer human tumor DMS 114 cell line growth inhibition.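 As to all read-outs here: spheroids exposed to compounds for 7 days before read-out.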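 As to viability, T/C: luminescence used as a proxy for viable cells; 100% = DMSO vehicle control viability.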 Conditions: spheroids with HUVEC and MSC; for viability, T/C: stronger effect = lower value. The source says:
Multicellular complex tumor spheroid response to DNA repair inhibitors in combination with DNA-damaging drugs
This study explores the anticancer activities of DNA-damaging drugs and inhibitors of DNA damage repair, both as single agents and in combinations. Complex tumor spheroids comprised of malignant cells, endothelial cells and mesenchymal stem cells served as an in vitro model for human solid tumors. This model system incorporates physiologically relevant features and patient-derived or established malignant cell lines with clinically relevant genetic alterations from many tumor types. Twenty-six patient-derived or established malignant cell lines were evaluated representing sarcoma, melanoma, small cell lung cancer (SCLC), non-small cell lung cancer (NSCLC), as well as bladder, ovarian and pancreatic cancers. The concentration ranges selected for each drug and investigational agent were based upon clinically achievable concentrations if the clinical Cmax of the agent was known.
Compounds. The drugs and compounds olaparib (NSC753686), talazoparib (NSC767125), berzosertib (NSC777718), elimusertib (NSC800525), nedisertib (NSC802822), VX-984 (NSC792969), AZD-1390 (NSC803789), temozolomide (NSC362856), topotecan (NSC609699), trabectedin (NSC813783), staurosporine (NSC755774), and gemcitabine (NSC613327) were obtained from the National Cancer Institute (NCI) Developmental Therapeutics Program Chemical Repository. The FDA-approved anticancer drug set is available from the Developmental Therapeutics Program at https://dtp.cancer.gov/organization/dscb/obtaining/available_plates.htm. […] The stock solutions were prepared in dimethyl sulfoxide (DMSO, Sigma-Aldrich, St. Louis, MO, cat. D2650) at 400-fold the tested concentration and stored at -70 degrees C. Prior to their use, the stock solutions were diluted in fresh medium and the final DMSO concentration in the assay was 0.25% (v/v). All drugs and investigational agents were tested over a range starting from a high concentration at or near the clinical Cmax and decreasing in half-log increments. If the clinical Cmax for an agent had not been determined, the highest concentration tested was 10 microM.
Cell Lines. The patient-derived cancer cell (PDC) lines: 156681-154-R-J1-PDC, 283228-195-R-J1-PDC, 287954-098-R-J1-PDC, 292921-168-R-J2-PDC, 349418-098-R-PDC, 425362-245-T-J1-PDC, 556581-035-R-J1-PDC, and BL0293-F563-PDC were received from the NCI Patient-Derived Models Repository (PDMR, https://pdmr.cancer.gov). The established cell lines HS-SY-2 (RRID:CVCL_8719), MPNST, and SYO-1 (RRID:CVCL_7146) were obtained from the Sloan Kettering Institute. The alveolar soft parts sarcoma cell line ASPS-1 (RRID:CVCL_S738) was established at the NCI and grown from internal seed stocks. The following established cell lines were purchased from the American Type Culture Collection (ATCC, Manassas, VA): G-401 (ATCC, cat. CRL-1441, RRID:CVCL_0270), SW982 (ATCC, cat. HTB-93, RRID:CVCL_1734), VA-ES-BJ (ATCC, cat. CRL-2138, RRID:CVCL_1785), NCI-H719 (ATCC, cat. CRL-5837, RRID:CVCL_1582), NCI-H196 (ATCC, cat. CRL-5823, RRID:CVCL_1509), NCI-H841 (ATCC, cat. CRL-5845, RRID:CVCL_1595), NCI-H1618 (ATCC, cat. CRL-5879, RRID:CVCL_1480), NCI-H1876 (ATCC, cat. CRL-5902, RRID:CVCL_1503), DMS 114 (ATCC, cat. CRL-2066; RRID:CVCL_1174), NCI-H211 (ATCC, cat. CRL-5824; RRID:CVCL_1529), and SW 1271 (ATCC, cat. CRL-2177, RRID:CVCL_1716). The small cell lung cancer cell line COR-L88 was purchased from Sigma-Aldrich (cat. 92031917-1VL, RRID:CVCL_1141). The non-small cell lung cancer cell lines NCI-H226 (RRID:CVCL_1544) and NCI-H322M (RRID:CVCL_1557) were established at the NCI and grown from internal seed stocks. Pooled donor human umbilical vein endothelial cells (HUVEC, Lonza, cat. CC-2519) and human mesenchymal stem cells (hMSC, Lonza, cat. PT-2501) were purchased from Lonza (Walkersville, MD).
Cell Culture. All cells were maintained in an incubator at 37 degrees C and 5% CO2 with 95% humidity. […]

Setting [1] is: compound alone, run of 10/17/2019.
Setting [2] is: compound alone, run of 10/25/2019.

As a reminder, the viability, T/C is the ratio of treated to control. As a reminder, the IC50 is the concentration that inhibits the measured activity by half.

Where “and” joins values, the source holds several entries; their conditions need not be identical. Identical values can stand only once.

As to `CC(C)n1c(=O)n(C)c2cnc3cc(F)c(-c4ccc(OCCCN5CCCCC5)nc4)cc3c21`, the viability, T/C reads like this: (compound 0.0316 µM) 106% and 99.8% and 105%; (compound 0.1 µM) 104% and 103% and 107%; (compound 0.316 µM) 101% and 97.2% and 106%; (compound 1 µM) 97.8% and 102% and 93.4%; (compound 3.16 µM) 70.1% and 88% and 73.8%; (compound 10 µM) 22.5% and 34.4% and 22.6%. The IC50 (curve of compound) is 5.15 µM and 7.21 µM and 5.37 µM.
As for `CC1COCCN1c1cc(-c2ccnn2C)c2ccnc(-c3ccn[nH]3)c2n1` (configuration not stated), the viability, T/C by setting is: (compound 0.0316 µM) 53.3% and 52% and 78.1%; (compound 0.1 µM) 33.3% and 43.1% and 47.9%; (compound 0.316 µM) 19% and 25.5% and 22.5%; (compound 1 µM) 12% and 12.8% and 12.6%; (compound 3.16 µM) 9.85% and 10.8% and 9.54%; (compound 10 µM) 10.2% and 11.9% and 8.81%. Further, under “curve of compound”, the IC50 is 0.0382 µM and 0.0407 µM and 0.0922 µM.
Regarding `CC[C@@]1(O)C(=O)OCc2c1cc1n(c2=O)Cc2cc3c(CN(C)C)c(O)ccc3nc2-1`, the viability, T/C by setting is: (compound 0.003 µM) 107% [middle of 10 runs]; (compound 0.03 µM) 33.1% [middle of 10 runs]; (compound 0.0949 µM) 16.2% [middle of 10 runs]; (compound 0.3 µM) 10.4% [middle of 10 runs]. Further, the IC50 under setting [1] is 22.3 nM [middle of 5 runs] and the IC50 under setting [2] was 20.2 nM [middle of 5 runs].
Turning to `CNCc1ccc(-c2cc(-c3nc(-c4ccc(S(=O)(=O)C(C)C)cc4)cnc3N)on2)cc1`, the viability, T/C (compound 0.00949 µM) is 93% and 107% and 91.3%; the viability, T/C (compound 0.03 µM) was 96.8% and 102% and 94%; the viability, T/C (compound 0.0949 µM) was 88.2% and 77.7% and 80.8%; the viability, T/C (compound 0.3 µM) was 34.7% and 25.9% and 27.3%; the viability, T/C (compound 0.949 µM) is 3.27% and 5.9% and 2.77%; the viability, T/C (compound 3 µM) is 0.32% and 0.23% and 0.26%. Further, the IC50 (curve of compound) was 0.216 µM and 0.176 µM and 0.184 µM.
Turning to `COc1cc(C)[nH]c(=O)c1CN1CCc2c(Cl)cc(C(OC)C3COC3)c(Cl)c2C1=O` (configuration not stated), the viability, T/C (compound 0.0316 µM) was 99.2% and 104% and 106%; the viability, T/C (compound 0.1 µM) is 92.3% and 96.3% and 96.5%; the viability, T/C (compound 0.316 µM) was 84.5% and 87.3% and 86.1%; the viability, T/C (compound 1 µM) is 78% and 79.3% and 78.8%; the viability, T/C (compound 3.16 µM) was 72.8% and 77.8% and 73.3%; the viability, T/C (compound 10 µM) is 72.2% and 72.6% and 72.4%. Where the note is “curve of compound”, the IC50 is greater than 10 µM.
In the case of `COc1cc2c(cc1O)CCNC21CSC2c3c(OC(C)=O)c(C)c4c(c3C(COC1=O)N1C(O)C3Cc5cc(C)c(OC)c(O)c5C(C21)N3C)OCO4` (configuration not stated), the viability, T/C reads like this: (compound 30 pM) 102% [middle of 10 runs]; (compound 94.9 pM) 102% [middle of 10 runs]; (compound 0.0003 µM) 41.4% [middle of 10 runs]; (compound 0.000949 µM) 4.04% [middle of 10 runs]; (compound 0.003 µM) 0.21% [middle of 7 runs]. In addition, the IC50 under setting [2] was 0.253 nM [middle of 10 runs].
With `COc1ccc([C@@H](O)c2cc(-c3ncnc4cc(N5CCOCC5)ccc34)c(F)cc2Cl)nn1`, the viability, T/C is, setting by setting: (compound 0.0316 µM) 98.5% and 111% and 96.3%; (compound 0.1 µM) 100% and 104% and 105%; (compound 0.316 µM) 98% and 103% and 108%; (compound 1 µM) 98.8% and 121% and 100%; (compound 3.16 µM) 81.9% and 95.8% and 92.8%; (compound 10 µM) 40.5% and 46.1% and 35.6%. Moreover, the IC50 (curve of compound) was 7.8 µM and 9.15 µM and 7.49 µM.
Regarding `Cc1cc(C)c(CNC(=O)c2cc(-c3ccc(CN4CCOCC4)cc3)cc3c2cnn3C2CCCC2)c(=O)[nH]1`, the viability, T/C (compound 0.0316 µM) was 99.2% and 94.7% and 96.4%; the viability, T/C (compound 0.1 µM) is 104% and 96.8% and 102%; the viability, T/C (compound 0.316 µM) was 103% and 113% and 108%; the viability, T/C (compound 1 µM) is 116% and 115% (2×); the viability, T/C (compound 3.16 µM) was 106% and 110% and 103%; the viability, T/C (compound 10 µM) was 62.3% and 78% and 72.8%. Under “curve of compound”, the IC50 was greater than 10 µM.
For `Cc1sc2c(c1C)C(c1ccc(Cl)cc1)=NC(CC(=O)Nc1ccc(O)cc1)c1nnc(C)n1-2` (configuration not stated), the viability, T/C reads like this: (compound 0.00949 µM) 99% and 105% and 95%; (compound 0.03 µM) 111% and 108% and 107%; (compound 0.0949 µM) 69.5% and 72.7% and 55.8%; (compound 0.3 µM) 27.6% and 24.4% and 18.9%; (compound 0.949 µM) 11.3% and 9.42% and 7.59%; (compound 3 µM) 7.11% and 4.64% and 4.8%. In addition, for the setting “curve of compound”, the concentration for half-maximal inhibition (IC50) is 0.164 µM and 0.116 µM.
With `Cn1ncnc1[C@H]1c2n[nH]c(=O)c3cc(F)cc(c23)N[C@@H]1c1ccc(F)cc1`, the viability, T/C reads like this: (compound 0.00949 µM) 117% and 110% and 92%; (compound 0.03 µM) 94.9% and 113% and 95.8%; (compound 0.0949 µM) 91.3% and 103% and 87.2%; (compound 0.3 µM) 72.8% and 101% and 65.3%; (compound 0.949 µM) 34.5% and 47.5% and 32.3%; (compound 3 µM) 9.35% and 15.3% and 10.1%. Further, the IC50 (curve of compound) is 0.611 µM and 0.901 µM and 0.514 µM.
Regarding `Cn1nnc2c(C(N)=O)ncn2c1=O`, the viability, T/C reads like this: (compound 1 µM) 101% [middle of 10 runs]; (compound 3.16 µM) 101% [middle of 9 runs]; (compound 10 µM) 106% [middle of 10 runs]; (compound 31.6 µM) 106% [middle of 10 runs]. For the same compound, the IC50 under setting [1] is greater than 100 µM.
Consider `O=C(c1cc(Cc2n[nH]c(=O)c3ccccc23)ccc1F)N1CCN(C(=O)C2CC2)CC1`, for which the viability, T/C was 105% and 104% and 97.3% (compound 0.0949 µM); 104% (2×) and 102% (compound 0.3 µM); 107% and 98.7% and 106% (compound 0.949 µM); 109% and 107% and 102% (compound 3 µM); 70.7% and 53.2% and 55.8% (compound 9.49 µM); 48.5% and 29.6% and 26.8% (compound 30 µM). Further, the IC50 (curve of compound) was 27.7 µM and 11.1 µM and 12 µM.
For the compound `[2H]c1nc(C)nc([2H])c1-c1cc(NC[C@@H](C)c2cccc3c(C(=O)NC)ccnc23)ncn1`, the viability, T/C (compound 0.0316 µM) is 103% and 104% (2×); the viability, T/C (compound 0.1 µM) is 109% and 103% and 111%; the viability, T/C (compound 0.316 µM) is 105% and 99.8% and 113%; the viability, T/C (compound 1 µM) is 105% and 103% and 96.1%; the viability, T/C (compound 3.16 µM) is 101% and 98% and 103%; the viability, T/C (compound 10 µM) is 96.1% and 93.5% and 87.6%. Under “curve of compound”, the IC50 was greater than 10 µM.
